# Test results as given in US7045528B2, “Benzofused heterozryl amide derivatives of thienopyridines useful as therapeutic agents, pharmaceutical compositions including the same, and methods for their use” (Agouron Pharmaceuticals, Inc., priority 2002, dated 2006).
# Legend:
# [1] = system: Huvec; experiment: bFGF Huvec proliferation; assay type: cell-based, human; conditions: Homo sapiens, HUVEC
# [2] = target: T1, PDGFRβ (Homo sapiens, UniProt P09619); experiment: PAE-PDGFRβ phosphorylation in PAE-PDGFRB cells assay; assay type: cell-based; conditions: PAE cells overexpressing human PDGFRβ, PDGF-BB stimulated; read-out: PAE PDGFR autophos IC50 (nM) AVG
# T1 construct: expressed in transfected cells; host or cells: porcine aorta endothelial (PAE)-PDGFRβ cells
# T1 sequence (P09619 33-1106): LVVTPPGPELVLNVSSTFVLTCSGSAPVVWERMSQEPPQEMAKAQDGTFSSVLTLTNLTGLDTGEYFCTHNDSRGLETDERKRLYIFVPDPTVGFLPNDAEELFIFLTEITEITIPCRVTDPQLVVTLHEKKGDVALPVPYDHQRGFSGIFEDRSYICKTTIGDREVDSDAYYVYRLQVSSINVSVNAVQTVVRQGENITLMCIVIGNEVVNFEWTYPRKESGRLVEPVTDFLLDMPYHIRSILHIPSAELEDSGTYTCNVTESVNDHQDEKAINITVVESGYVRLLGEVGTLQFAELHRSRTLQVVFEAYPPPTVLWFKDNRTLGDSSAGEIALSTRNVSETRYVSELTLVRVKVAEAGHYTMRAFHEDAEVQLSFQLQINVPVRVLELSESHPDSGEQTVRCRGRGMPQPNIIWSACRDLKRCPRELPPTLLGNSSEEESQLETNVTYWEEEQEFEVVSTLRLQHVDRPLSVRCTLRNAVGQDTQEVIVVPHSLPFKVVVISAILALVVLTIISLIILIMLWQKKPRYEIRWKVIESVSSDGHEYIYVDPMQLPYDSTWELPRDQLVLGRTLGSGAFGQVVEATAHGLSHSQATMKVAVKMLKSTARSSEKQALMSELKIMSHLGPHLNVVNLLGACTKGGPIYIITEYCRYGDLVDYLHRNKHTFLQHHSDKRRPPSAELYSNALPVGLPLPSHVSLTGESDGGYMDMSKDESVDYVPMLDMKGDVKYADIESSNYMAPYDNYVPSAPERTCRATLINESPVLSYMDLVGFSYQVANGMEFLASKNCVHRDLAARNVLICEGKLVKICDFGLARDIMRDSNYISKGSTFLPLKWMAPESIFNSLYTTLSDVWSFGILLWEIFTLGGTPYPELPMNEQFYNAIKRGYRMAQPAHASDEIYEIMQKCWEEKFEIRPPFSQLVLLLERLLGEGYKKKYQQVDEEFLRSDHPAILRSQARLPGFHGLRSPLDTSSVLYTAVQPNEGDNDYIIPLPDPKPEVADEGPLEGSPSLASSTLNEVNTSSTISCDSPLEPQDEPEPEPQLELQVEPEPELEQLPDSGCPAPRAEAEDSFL
# In short: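 PAE cells overexpressing human PDGFRβ, serum-starved 16 h (0.1% FBS), were given compound for 1 h at 37 °C (0.5% DMSO) and then stimulated with 1 μg/mL PDGF-BB plus 2 mM Na3VO4 for 8 min. Receptor autophosphorylation was read by capture ELISA (HRP-PY20, TMB, 450 nm); IC50 from 4-parameter fit.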
# [3] = system: human umbilical vein endothelial cells (HUVEC); experiment: HUVEC+VEGF proliferation assay; assay type: cell-based; conditions: Homo sapiens, HUVEC; VEGF 6 ng/mL, 72 h, MTT
# Method: HUVEC+VEGF Proliferation Assay
# This assay determines the ability of a test compound to inhibit the growth factor-stimulated proliferation of human umbilical vein endothelial cells (“HUVEC”). HUVEC cells (passage 3–4; Clonetics, Corp.) were thawed into EGM2 culture medium (Clonetics Corp) in T75 flasks. Fresh EGM2 medium was added to the flasks 24 hours later. Four or five days later, cells were exposed to another culture medium (F12K medium supplemented with 10% fetal bovine serum (FBS), 60 μg/mL endothelial cell growth supplement (ECGS), and 0.1 mg/mL heparin). Exponentially-growing HUVEC cells were used in experiments thereafter. Ten to twelve thousand HUVEC cells were plated in 96-well dishes in 100 μl of rich, culture medium (described above). The cells were allowed to attach for 24 hours in this medium. The medium was then removed by aspiration and 105 μl of starvation media (F12K+1% FBS) was added to each well. After 24 hours, 15 μl of test agent dissolved in 1% DMSO in starvation medium or this vehicle alone was added into each treatment well; the final DMSO concentration was 0.1%. One hour later, 30 μl of VEGF (30 ng/mL) in starvation media was added to all wells except those containing untreated controls; the final VEGF concentration was 6 ng/mL. Cellular proliferation was quantified 72 hours later by MTT dye reduction, at which time cells were exposed for 4 hours MTT (Promega Corp.). Dye reduction was stopped by addition of a stop solution (Promega Corp.) and absorbance at 595 nm was determined on a 96-well spectrophotometer plate reader.
# [4] = target: T2, unphosphorylated VEGF-R2Δ50 (FLVK) (Homo sapiens, UniProt P35968, DEL940-989/E990V); experiment: VEGF-R2 coupled spectrophotometric assay, unphosphorylated VEGF-R2Δ50 (FLVK); assay type: biochemical; conditions: unphosphorylated VEGF-R2Δ50; for inhibition at 0.05 µM: 50 nM compound, read-out: FLVK (% inh @ 50 nM)
# T2 construct: VEGF-R2Δ50 contains residues 806–939 and 990–1171; made in house; host or cells: baculovirus/insect cell system
# T2 sequence (P35968 with tags, fused parts or gaps DEL940-989/E990V limits assumed): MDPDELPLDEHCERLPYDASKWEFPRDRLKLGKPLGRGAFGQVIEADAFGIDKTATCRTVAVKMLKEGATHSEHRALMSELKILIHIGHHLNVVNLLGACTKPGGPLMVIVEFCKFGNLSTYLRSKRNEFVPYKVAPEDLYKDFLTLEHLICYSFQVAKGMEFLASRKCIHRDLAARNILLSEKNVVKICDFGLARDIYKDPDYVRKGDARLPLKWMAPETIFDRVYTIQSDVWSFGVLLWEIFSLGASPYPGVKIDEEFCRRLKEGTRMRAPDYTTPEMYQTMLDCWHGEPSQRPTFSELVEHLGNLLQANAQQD
# In short: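 Baculovirus-expressed human VEGF-R2Δ50 (kinase insert partly deleted, E990V), unphosphorylated form; ADP production coupled via PK/LDH to NADH oxidation, read at 340 nm. 20 mM poly(E4Y1), 3 mM ATP, 60 mM MgCl2, 2 mM MnCl2, 200 mM HEPES pH 7.5; 5–40 nM enzyme. Ki from Morrison tight-binding fit.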
SMILES,IC50 [2] [nM],inhibition at 0.05 µM [4] [%],Ki [4] [nM],IC50 [1] [nM],IC50 [3] [nM]
"CCc1sc2cc(Oc3ccnc4cc(C(=O)N5CC[C@@H](OC)C5)sc34)ccc2c1C(=O)NC [Example 135, 2-Ethyl-6-[(2-{[(3R)-3-methoxypyrrolidin-1-yl]carbonyl}thieno[3,2-b]pyridin-7-yl)oxy]benzo[b]thiophene-3-carboxylic acid methylamide]",212,87,1.54,559,1.02
"Cc1oc2cc(Oc3ccnc4cc(C(=O)N5CC[C@@H](O)C5)sc34)ccc2c1C(=O)NCC(C)C [Example 88, 2-Methyl-6[2-(3-hydroxy-pyrrolidine-1-carbonyl)-thieno[3,2-b]pyridin-7-yloxy]-benzofuran-3-carboxylic acid isobutyl amide]",15.1,94,0.574,363,0.46
"CNC(=O)c1c(C)oc2cc(Oc3ccnc4cc(C(=O)N5CCC5)sc34)ccc12 [Example 77, 6[2-(Azetidine-1-carbonyl)-thieno[3,2-b]pyridin-7-yloxy]-2-methyl-benzofuran-3-carboxylic acid methylamide]",7.4,99,0.2,8,0.2
CNC(=O)c1c(C)sc2cc(Oc3ccnc4cc(-c5nc(CO)cs5)sc34)ccc12 [Example 128],148,91,0.57,100,0.13
Cc1sc2cc(Oc3ccnc4cc(-c5nc(CO)cs5)sc34)ccc2c1C(=O)NC1CC1 [Example 129],168,88,0.2,100,0.219
"Cc1sc2cc(Oc3ccnc4cc(-c5nccn5C)sc34)ccc2c1C(=O)NC1CC1 [Example 117, 2-Methyl-6-{[2-(1-methyl-1H-imidazol-2-yl)thieno[3,2-b]pyridin-7-yl]oxy}benzo[b]thiophene-3-carboxylic acid cyclopropylamide]",189,87,0.2,86,0.07
"CCc1oc2cc(Oc3ccnc4cc(C(=O)N5CCC[C@H]5CO)sc34)ccc2c1C(=O)NC [Example 97, 2-ethyl-6(2-[(S)-2-(hydroxymethyl)pyrrolidine-1-carbonyl]thieno[3,2-b]pyridin-7-yloxy)-benzofuran-3-carboxylic acid methylamide]",293,70,4.84,223,10
"CCCNC(=O)c1c(C)n(C)c2cc(Oc3ccnc4cc(-c5nccs5)sc34)ccc12 [Example 60, 1,2-Dimethyl-6-(2-thiazol-2-yl-thieno[3,2-b]pyridin-7-yloxy)1H-indole-3-carboxylic acid propylamide]",38.3,81,2.17,1700,1.34
"CCCNC(=O)c1c(C)n(C)c2cc(Oc3ccnc4cc(C(=O)N5CC[C@@H](O)C5)sc34)ccc12 [Example 59, 6-[2-(3-Hydroxy-pyrrolidine-1-carbonyl)-thieno[3,2-b]pyridin-7-yloxy]-1,2-dimethyl-3H-indole-3-carboxylic acid propylamide]",115,81,1.38,1160,0.045
"CNC(=O)c1c(C)n(C)c2cc(Oc3ccnc4cc(-c5ccncc5)sc34)ccc12 [Example 38, 1,2-Dimethyl-6-(2-pyridin-4-yl-thieno[3,2-b]pyridin-7-yloxy)-1H-indole-3-carboxylic acid methylamide]",12.3,60,6.12,10000,27
"CNC(=O)c1c(C)oc2cc(Oc3ccnc4cc(C(=O)N5CCC[C@H]5COC)sc34)ccc12 [Example 79, 6-(2-[(S)-2-(methoxymethyl)pyrrolidine-1-carbonyl]thieno[3,2-b]pyridin-7-yloxy)-2-methyl-benzofuran-3-carboxylic acid methyl amide]",15.5,90,0.276,130,0.223
"CCc1sc2cc(Oc3ccnc4cc(-c5nccn5C)sc34)ccc2c1C(=O)NC [Example 134, 2-Ethyl 6-{[2-(1-methyl-1H-imidazol-2-yl)thieno[3,2-b]pyridin-7-yl]oxy}benzo[b]thiophene-3-carboxylic acid methylamide]",177,94,1.44,1070,0.656

# Second part, led by results:
IC50 [2] [nM],inhibition at 0.05 µM [4] [%],Ki [4] [nM],SMILES,IC50 [1] [nM],IC50 [3] [nM]
49,96,0.91,"Cc1oc2cc(Oc3ccnc4ccsc34)ccc2c1C(=O)Nc1ccc(N2CCOCC2)nc1 [Example 102, 2-Methyl-6-(thieno[3,2-b]pyridin-7-yloxy)benzofuran-3-carboxylic acid (6-morpholin-4-yl-pyridin-3-yl)amide]",1720,0.186
21.3,87,1.2,"CNC(=O)c1c(C)n(C)c2cc(Oc3ccnc4cc(C(=O)N5CCC(CNC(=O)OC(C)(C)C)C5)sc34)ccc12 (centres unmarked) [Example 44, tert-Butyl (1-{[7-({1,2-dimethyl-3-[(methylamino)carbonyl]-1H-indol-6-yl}oxy)thieno[3,2-b]pyridin-2-yl]carbonyl}pyrrolidin-3-yl)methylcarbamate]",6040,1.78
104,93,0.492,"CO[C@@H]1CCN(C(=O)c2cc3nccc(Oc4ccc5c(C(=O)NC6CC6)c(C)sc5c4)c3s2)C1 [Example 11, 6-[(2-{[(3R)-3-methoxypyrrolidin-1-yl]carbonyl}thieno[3,2-b]pyridin-7-yl)oxy]-2-methylbenzo[b]thiophene-3-carboxylic acid cyclopropylamide]",40,0.56
213,64,5.1,"CCc1sc2cc(Oc3ccnc4cc(C(=O)N5CCC[C@H]5COC)sc34)ccc2c1C(=O)NC [Example 137, 2-Ethyl-6-[(2-{[(2S)-2-(methoxymethyl)pyrrolidin-1-yl]carbonyl}thieno[3,2-b]pyridin-7-yl)oxy]benzo[b]thiophene-3-carboxylic acid methylamide]",294,2.1
28.8,98,0.2,"Cc1oc2cc(Oc3ccnc4cc(-c5nccn5C)sc34)ccc2c1C(=O)NC(C)C [Example 83, 2-Methyl-6-[2-(1-methyl-1H-imidazol-2-yl)-thieno[3,2-b]pyridin-7-yloxy]-benzofuran-3-carboxylic acid isopropyl amide]",142,0.77
229,93,1.07,"Cc1c(C(=O)NC2CC2)c2ccc(Oc3ccnc4cc(C(=O)N5CC[C@@H](O)C5)sc34)cc2n1C [Example 53, 6-[2-((R)-3-Hydroxy-pyrrolidine-1-carbonyl)-thieno[3,2-b]pyridin-7-yloxy]-1,2-dimethyl-1H-indole-3-carboxylic acid cyclopropylamide]",7230,1.8
27.3,83,1.71,"COC[C@@H]1CCCN1C(=O)c1cc2nccc(Oc3ccc4c(C(=O)NCC(C)C)c(C)oc4c3)c2s1 (stereo in doubt) [Example 85, 6[2-(2-Methoxymethyl-pyrrolidine-1-carbonyl)-thieno[3,2-b]pyridin-7-yloxy]-2-methyl-benzofuran-3-carboxylic acid isobutyl amide]",6990,3.92
